Source: the supplement of paper PMC4862054

What was measured:
Details in all cases: incubation time: 72 h
HCC1937 [1] = test: normalised response (% of control), CellTiter-Glo; higher = more viable cells (100 = DMSO, 0 = benzethonium chloride kill control)
Experimental: (§1)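 DSRT, 72 h incubation, CellTox Green / CellTiter-Glo readout. Signal is normalised to DMSO and benzethonium chloride controls. Value is the normalised response at dose 3.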

HCC1599 [2] = test: as above
Experimental: as §1

CAL-120 [3] = test: as above
Experimental: as §1

SK-BR-3 = test: as above
Experimental: as §1

MDA-MB-453 [4] = test: as above
Experimental: as §1

Hs578T [5] = test: as above
Experimental: as §1

MDA-MB-436 [6] = test: as above
Experimental: as §1

MCF-10A [7] = test: as above
Experimental: as §1

BT-474 [8] = test: as above
Experimental: as §1

DU-4475 [9] = test: as above
Experimental: as §1

BT-549 [10] = test: as above
Experimental: as §1

CAL-148 [11] = test: as above
Experimental: as §1

MDA-MB-231 [12] = test: as above
Experimental: as §1

CAL-51 [13] = test: as above
Experimental: as §1

HDQ-P1 [14] = test: as above
Experimental: as §1

HCC1143 [15] = test: as above
Experimental: as §1

CAL-85-1 [16] = test: as above
Experimental: as §1

MDA-MB-468 [17] = test: as above
Experimental: as §1

MFM-223 [18] = test: as above
Experimental: as §1

HCC1937 [19] = test: normalised response (% of control), CellTox Green; higher = less cell death (100 = DMSO, 0 = benzethonium chloride kill control)
Method in brief: (§2)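 Breast cancer cell lines were exposed for 72 h in 384-well plates to compound at 5 concentrations, 10-fold apart, covering a 10,000-fold range fixed for each compound. Plates were read for CellTox Green fluorescence and CellTiter-Glo luminescence and normalised to 0.1 % DMSO (100) and a positive kill control (0). Each value is the normalised signal at one concentration of the series.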

HCC1599 [20] = test: as above
Method in brief: as §2

CAL-120 [21] = test: as above
Method in brief: as §2

MDA-MB-453 [22] = test: as above
Method in brief: as §2

Hs578T [23] = test: as above
Method in brief: as §2

MCF-10A [24] = test: as above
Method in brief: as §2

BT-474 [25] = test: as above
Method in brief: as §2

DU-4475 [26] = test: as above
Method in brief: as §2

BT-549 [27] = test: as above
Method in brief: as §2

CAL-148 [28] = test: as above
Method in brief: as §2

MDA-MB-231 [29] = test: as above
Method in brief: as §2

CAL-51 [30] = test: as above
Method in brief: as §2

HDQ-P1 [31] = test: as above
Method in brief: as §2

HCC1143 [32] = test: as above
Method in brief: as §2

CAL-85-1 [33] = test: as above
Method in brief: as §2

MFM-223 [34] = test: as above
Method in brief: as §2

MDA-MB-436 [35] = test: as above
Method in brief: as §2

MDA-MB-468 [36] = test: as above
Method in brief: as §2

| SMILES | normalised response (HCC1937 [1]) | normalised response (HCC1599 [2]) | normalised response (CAL-120 [3]) | normalised response (SK-BR-3) | normalised response (MDA-MB-453 [4]) | normalised response (Hs578T [5]) | normalised response (MDA-MB-436 [6]) | normalised response (MCF-10A [7]) | normalised response (BT-474 [8]) | normalised response (DU-4475 [9]) | normalised response (BT-549 [10]) | normalised response (CAL-148 [11]) | normalised response (MDA-MB-231 [12]) | normalised response (CAL-51 [13]) | normalised response (HDQ-P1 [14]) | normalised response (HCC1143 [15]) | normalised response (CAL-85-1 [16]) | normalised response (MDA-MB-468 [17]) | normalised response (MFM-223 [18]) | normalised response (HCC1937 [19]) | normalised response (HCC1599 [20]) | normalised response (CAL-120 [21]) | normalised response (MDA-MB-453 [22]) | normalised response (Hs578T [23]) | normalised response (MCF-10A [24]) | normalised response (BT-474 [25]) | normalised response (DU-4475 [26]) | normalised response (BT-549 [27]) | normalised response (CAL-148 [28]) | normalised response (MDA-MB-231 [29]) | normalised response (CAL-51 [30]) | normalised response (HDQ-P1 [31]) | normalised response (HCC1143 [32]) | normalised response (CAL-85-1 [33]) | normalised response (MFM-223 [34]) | normalised response (MDA-MB-436 [35]) | normalised response (MDA-MB-468 [36]) |
| --- | --- | --- | --- | --- | --- | --- | --- | --- | --- | --- | --- | --- | --- | --- | --- | --- | --- | --- | --- | --- | --- | --- | --- | --- | --- | --- | --- | --- | --- | --- | --- | --- | --- | --- | --- | --- | --- |
| CCNC(=O)CCC/C=C\C[C@@H]1[C@@H](/C=C/[C@@H](O)CCc2ccccc2)[C@H](O)C[C@@H]1O [Bimatoprost] (55 nM) | 97.1% | 99.4% | 99.7% | 91.7% | 99.1% | 94.9% | 100% | 90.1% | 97.2% | 94.7% | 98.3% | 95.8% | 100% | 90.4% | 94.2% | 99.7% | 92.4% | 94% | 104% | 76.7% | 97.2% | 98.3% | 97.6% | 103% | 89.2% | 98.7% | 96.9% | 94.8% | 95% | 99.8% | 103% | 64.3% | 110% | 83.9% | 101% | – | – |
| COc1cc(Nc2c(C#N)cnc3cc(OCCCN4CCN(C)CC4)c(OC)cc23)c(Cl)cc1Cl [Bosutinib] (100 nM) | 95.5% | 93.1% | 100% | 109% | 103% | 99% | 103% | 77.4% | 104% | 97.5% | 103% | 104% | 100% | 100% | 85.9% | 101% | 98.3% | 95.4% | 99.3% | 54.8% | 101% | 99.3% | 100% | – | 103% | 101% | 109% | 97.1% | 105% | 104% | 101% | 101% | 76.2% | 117% | 101% | 104% | 148% |
| CCN(CC)CCCC(C)Nc1ccnc2cc(Cl)ccc12 (stereo not drawn) [Chloroquine] (1000 nM) | 90.6% | 97% | 110% | 82.9% | 81.3% | 96% | 108% | 94.4% | 101% | 93% | 103% | 86.9% | 98.1% | 78.1% | 103% | 97.4% | 102% | 83.1% | 93.4% | 102% | 97.9% | 103% | 96.3% | 99.3% | 86.3% | 79.8% | 99.9% | 105% | 104% | 98% | 85.5% | 88.4% | 109% | 110% | 87.7% | 85% | – |
| CCn1c(C(=O)N(C2CC2)C2CC2)cc2c3c(ncn3C)c(Nc3cc(C)n(C)n3)nc21 (100 nM) | 97.4% | 93% | 95.7% | 105% | 93.2% | 110% | 106% | 106% | 100% | 99.2% | 110% | 103% | 99.7% | 87.7% | 98.3% | 101% | 100% | 97% | 99.8% | 57.1% | 96% | 90.4% | 99.3% | – | 77.7% | 101% | 101% | 106% | 103% | 106% | 101% | 102% | 98.8% | 108% | 94.8% | 93.9% | 83.1% |
| CC(C)(C)c1nc(-c2cccc(NS(=O)(=O)c3c(F)cccc3F)c2F)c(-c2ccnc(N)n2)s1 [Dabrafenib] (25 nM) | 102% | 105% | 99.8% | 110% | 96.7% | 104% | 111% | 115% | 99.2% | 82.6% | 104% | 108% | 100% | 89.9% | 103% | 118% | 96.6% | 94.7% | 106% | 94.8% | 93.3% | 105% | 105% | – | 108% | 103% | 99.8% | 98.8% | 106% | 114% | 110% | 95.9% | 107% | 107% | – | 79.1% | 119% |
| COc1ccc(S(=O)(=O)Nc2cccnc2Nc2ccc(O)cc2)cc1 [ABT-751] (100 nM) | 92.5% | 109% | 95.2% | 93% | 84.2% | 107% | 98.5% | 96.6% | 99.2% | 99.6% | 100% | 96.6% | 101% | 88.9% | 96% | 99.3% | 96.9% | 97% | 101% | 110% | 101% | 94.7% | 98% | – | 57% | 92.9% | 97.4% | 95.4% | 104% | 102% | 98.6% | 101% | 69.5% | 92.2% | – | 83.8% | 81.9% |
| CC(C)n1cnc2c(NCCc3ccc(O)cc3)nc(-c3csc4ccccc34)nc21 [StemRegenin 1] (100 nM) | 96.9% | 91% | 112% | 103% | 93.8% | 103% | 101% | 99.5% | 100% | 98.4% | 99.2% | 103% | 112% | 80.8% | 95.2% | 109% | 98.8% | 93.8% | 104% | 98.2% | 99.5% | 102% | 109% | – | 117% | 80% | 102% | 100% | 103% | 111% | 89.2% | 88.2% | 96.3% | 113% | 98.8% | 118% | 105% |
| CO[C@@]12[C@H](COC(N)=O)C3=C(C(=O)C(C)=C(N)C3=O)N1C[C@@H]1N[C@@H]12 [Mitomycin C] (100 nM) | 93.9% | 95.7% | 91.8% | 94% | 94.1% | 98.9% | 90.8% | 92.2% | 95.2% | 99% | 96.5% | 89.6% | 93.5% | 101% | 104% | 98.2% | 101% | 91.3% | 93.8% | 84.9% | 91.5% | 101% | 102% | – | 81.8% | 100% | 95.3% | 99.5% | 60.3% | 97% | 73.6% | – | 90% | 93.3% | 99.2% | 83.8% | – |
| CC1(C)CCC(c2ccc(Cl)cc2)=C(CN2CCN(c3ccc(C(=O)NS(=O)(=O)c4ccc(N[C@H](CCN5CCOCC5)CSc5ccccc5)c(S(=O)(=O)C(F)(F)F)c4)cc3)CC2)C1 [Navitoclax] (100 nM) | 87.9% | 94.5% | 87.2% | 88.5% | 87.7% | 93.6% | 91.9% | 91.4% | 88.1% | 92.9% | 96.7% | 88% | 91.4% | 104% | 96.8% | 95.6% | 89.7% | 83% | 96% | 67.1% | 101% | 92.1% | 92% | – | 79.6% | 99.4% | 96.2% | 96.6% | 100% | 73.8% | 94% | – | 92.1% | 93.6% | 103% | 72.7% | 104% |
